Assay results as given in ChEMBL document CHEMBL6087477, “G9a/GLP Modulators: Inhibitors to Degraders” (J Med Chem, 2025).
pEC50, pIC50, pKi: −log10 of the molar value. Each block holds one molecule with its values, some of them ahead of it.

Tests used:
[1] = biological target: hERG (KCNH2) (Homo sapiens, UniProt Q12809); assay: Inhibition of hERG at 30 uM relative to control; type: toxicity
[2] = biological target: T1, Histone-lysine N-methyltransferase EHMT2 (Homo sapiens, UniProt Q96KQ7); assay: Inhibition of G9a (unknown origin) using H3 as peptide substrate measured after 20 mins by fluorescence based analysis
T1 sequence (Q96KQ7 whole entry): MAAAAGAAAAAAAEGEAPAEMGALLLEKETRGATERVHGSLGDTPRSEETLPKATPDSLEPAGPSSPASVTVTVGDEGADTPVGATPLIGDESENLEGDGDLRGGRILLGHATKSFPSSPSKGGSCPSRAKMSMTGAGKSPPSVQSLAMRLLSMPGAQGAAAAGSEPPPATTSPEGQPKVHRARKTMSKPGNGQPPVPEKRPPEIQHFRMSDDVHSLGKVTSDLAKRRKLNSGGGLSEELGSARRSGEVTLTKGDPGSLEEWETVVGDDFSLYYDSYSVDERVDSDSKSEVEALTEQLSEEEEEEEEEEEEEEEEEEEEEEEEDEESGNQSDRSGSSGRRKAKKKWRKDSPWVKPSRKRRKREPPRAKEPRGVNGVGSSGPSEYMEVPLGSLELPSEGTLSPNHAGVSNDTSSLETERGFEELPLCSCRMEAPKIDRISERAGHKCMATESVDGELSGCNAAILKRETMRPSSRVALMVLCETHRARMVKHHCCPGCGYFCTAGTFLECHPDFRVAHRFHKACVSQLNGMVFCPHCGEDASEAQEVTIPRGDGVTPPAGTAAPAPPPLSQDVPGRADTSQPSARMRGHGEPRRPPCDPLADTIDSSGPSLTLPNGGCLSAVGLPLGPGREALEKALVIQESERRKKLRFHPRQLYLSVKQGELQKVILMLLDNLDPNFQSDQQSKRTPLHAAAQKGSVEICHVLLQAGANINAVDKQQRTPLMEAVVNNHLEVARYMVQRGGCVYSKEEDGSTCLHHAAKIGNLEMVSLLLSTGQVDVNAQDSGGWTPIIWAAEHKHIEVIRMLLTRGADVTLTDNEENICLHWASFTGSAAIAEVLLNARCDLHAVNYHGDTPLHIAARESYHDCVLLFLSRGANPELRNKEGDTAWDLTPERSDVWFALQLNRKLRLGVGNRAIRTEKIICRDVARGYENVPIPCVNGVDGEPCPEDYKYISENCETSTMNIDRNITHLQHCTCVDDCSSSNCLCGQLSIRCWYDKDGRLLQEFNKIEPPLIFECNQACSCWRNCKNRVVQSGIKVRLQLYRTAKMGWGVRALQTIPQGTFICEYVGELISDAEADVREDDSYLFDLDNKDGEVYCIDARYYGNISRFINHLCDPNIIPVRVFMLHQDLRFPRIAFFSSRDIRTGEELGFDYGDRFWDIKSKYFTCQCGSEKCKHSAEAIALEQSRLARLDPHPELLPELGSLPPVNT

[3] = biological target: T2, Histone-lysine N-methyltransferase EHMT1 (Homo sapiens, UniProt Q9H9B1); assay: Inhibition of GLP (unknown origin)
T2 sequence (Q9H9B1 whole entry): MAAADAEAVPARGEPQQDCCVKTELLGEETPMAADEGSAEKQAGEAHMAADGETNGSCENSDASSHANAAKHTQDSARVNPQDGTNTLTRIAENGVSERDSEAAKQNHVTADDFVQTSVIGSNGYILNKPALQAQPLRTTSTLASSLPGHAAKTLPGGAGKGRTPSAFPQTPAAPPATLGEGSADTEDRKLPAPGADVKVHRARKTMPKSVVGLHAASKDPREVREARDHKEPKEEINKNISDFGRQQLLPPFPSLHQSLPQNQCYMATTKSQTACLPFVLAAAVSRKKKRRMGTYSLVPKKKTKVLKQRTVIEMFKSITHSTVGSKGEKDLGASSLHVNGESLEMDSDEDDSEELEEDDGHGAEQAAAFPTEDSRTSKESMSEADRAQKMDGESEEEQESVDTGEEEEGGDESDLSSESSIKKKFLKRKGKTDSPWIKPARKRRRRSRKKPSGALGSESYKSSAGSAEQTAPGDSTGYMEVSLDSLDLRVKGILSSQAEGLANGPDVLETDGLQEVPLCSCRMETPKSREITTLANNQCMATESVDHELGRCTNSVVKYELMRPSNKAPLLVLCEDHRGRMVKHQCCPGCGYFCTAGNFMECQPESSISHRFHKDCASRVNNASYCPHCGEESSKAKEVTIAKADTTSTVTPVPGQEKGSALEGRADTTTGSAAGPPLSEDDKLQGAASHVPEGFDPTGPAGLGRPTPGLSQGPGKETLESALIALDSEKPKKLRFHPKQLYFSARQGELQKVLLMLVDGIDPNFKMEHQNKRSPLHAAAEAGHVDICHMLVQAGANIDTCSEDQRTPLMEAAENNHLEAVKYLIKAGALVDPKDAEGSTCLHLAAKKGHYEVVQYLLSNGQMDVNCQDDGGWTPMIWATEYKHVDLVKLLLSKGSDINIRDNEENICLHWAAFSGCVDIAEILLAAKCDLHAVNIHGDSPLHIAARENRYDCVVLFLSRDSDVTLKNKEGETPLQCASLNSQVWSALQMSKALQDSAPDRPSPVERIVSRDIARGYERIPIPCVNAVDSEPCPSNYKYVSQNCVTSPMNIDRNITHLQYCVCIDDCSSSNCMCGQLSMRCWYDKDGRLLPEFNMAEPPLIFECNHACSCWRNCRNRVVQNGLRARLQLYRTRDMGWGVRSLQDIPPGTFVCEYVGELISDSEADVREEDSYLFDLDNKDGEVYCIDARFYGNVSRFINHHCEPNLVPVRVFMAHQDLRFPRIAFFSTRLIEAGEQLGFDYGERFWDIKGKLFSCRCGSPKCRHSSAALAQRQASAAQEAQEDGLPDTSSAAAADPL

[4] = Microsomal stability in human liver microsomes assessed as half life measured for incubated upto 60 mins by LC-MS/MS analysis; type: ADME, Microsome
[5] = Microsomal stability in mouse liver microsomes assessed as half life incubated upto 60 mins by LC-MS/MS analysis; type: ADME, Microsome
[6] = Half life in Balb/c mouse at 3 mg/kg, iv; type: ADME, organism-based; conditions: in vivo
[7] = biological target: T1, Histone-lysine N-methyltransferase EHMT2; assay: Inhibition of G9a (unknown origin)
[8] = biological target: T1, Histone-lysine N-methyltransferase EHMT2; assay: Binding affinity to G9a (unknown origin) assessed as inhibition constant
[9] = biological target: T2, Histone-lysine N-methyltransferase EHMT1; assay: Binding affinity to GLP (unknown origin) assessed as inhibition constant
[10] = Antiproliferative activity against human WSU-FSCCL cells assessed as reduction in cell viability; type: functional, cell-based
[11] = Antiproliferative activity against human WILL-1 cells assessed as reduction in cell viability; type: functional, cell-based
[12] = test system: DOHH-2; assay: Antiproliferative activity against human DOHH-2 cells assessed as reduction in cell viability; type: functional, cell-based
[13] = Antiproliferative activity against human SC1 cells assessed as reduction in cell viability; type: functional, cell-based; conditions: SC-1
[14] = test system: DB; assay: Antiproliferative activity against human DB cells assessed as reduction in cell viability; type: functional, cell-based
[15] = test system: SU-DHL-8; assay: Antiproliferative activity against human SU-DHL-8 cells assessed as reduction in cell viability; type: functional, cell-based
[16] = test system: MCF7; assay: Antiproliferative activity against human MCF7 cells assessed as reduction in cell viability by sulforhodamine B assay; type: functional, cell-based
[17] = test system: T47D; assay: Antiproliferative activity against human T47D cells assessed as reduction in cell viability by sulforhodamine B assay; type: functional, cell-based
[18] = test system: SK-BR-3; assay: Antiproliferative activity against human SK-BR-3 cells assessed as reduction in cell viability by sulforhodamine B assay; type: functional, cell-based
[19] = Cmax in mouse at 10 mg/kg, po; type: ADME, organism-based; conditions: in vivo
[20] = test system: MCF7; assay: Cytotoxicity against human MCF7 cells; type: functional, cell-based
[21] = biological target: T2, Histone-lysine N-methyltransferase EHMT1; assay: Inhibition of GLP (unknown origin) measured after 20 mins by fluorescence based analysis

Sequence of hERG (KCNH2) (Q12809 whole entry): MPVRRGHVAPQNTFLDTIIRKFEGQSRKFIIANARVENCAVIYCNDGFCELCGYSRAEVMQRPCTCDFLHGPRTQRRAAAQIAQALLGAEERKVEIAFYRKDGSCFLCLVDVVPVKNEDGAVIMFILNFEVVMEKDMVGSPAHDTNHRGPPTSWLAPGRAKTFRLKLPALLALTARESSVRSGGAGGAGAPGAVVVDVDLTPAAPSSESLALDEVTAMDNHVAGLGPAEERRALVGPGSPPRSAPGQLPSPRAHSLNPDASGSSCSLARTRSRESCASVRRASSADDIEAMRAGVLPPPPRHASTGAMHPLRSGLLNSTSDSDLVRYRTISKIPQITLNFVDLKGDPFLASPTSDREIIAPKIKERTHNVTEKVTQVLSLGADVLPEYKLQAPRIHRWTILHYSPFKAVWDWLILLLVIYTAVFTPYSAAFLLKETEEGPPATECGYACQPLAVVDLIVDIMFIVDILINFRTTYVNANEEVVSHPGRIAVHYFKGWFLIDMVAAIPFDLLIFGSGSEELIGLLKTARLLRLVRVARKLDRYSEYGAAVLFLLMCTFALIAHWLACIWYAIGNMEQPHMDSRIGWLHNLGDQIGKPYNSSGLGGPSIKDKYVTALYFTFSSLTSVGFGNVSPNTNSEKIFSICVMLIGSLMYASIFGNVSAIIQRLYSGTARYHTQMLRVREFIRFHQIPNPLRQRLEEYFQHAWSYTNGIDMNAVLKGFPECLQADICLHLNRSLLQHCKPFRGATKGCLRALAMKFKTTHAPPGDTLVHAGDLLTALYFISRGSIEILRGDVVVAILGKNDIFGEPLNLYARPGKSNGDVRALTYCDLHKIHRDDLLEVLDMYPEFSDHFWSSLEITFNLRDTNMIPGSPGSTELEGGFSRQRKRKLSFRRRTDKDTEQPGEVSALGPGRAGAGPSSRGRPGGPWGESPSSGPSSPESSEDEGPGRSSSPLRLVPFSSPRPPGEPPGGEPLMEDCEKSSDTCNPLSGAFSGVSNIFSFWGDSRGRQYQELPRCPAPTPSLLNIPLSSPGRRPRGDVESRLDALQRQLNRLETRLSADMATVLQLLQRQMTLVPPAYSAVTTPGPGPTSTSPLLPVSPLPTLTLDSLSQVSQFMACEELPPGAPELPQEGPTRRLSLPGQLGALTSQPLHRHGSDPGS

pIC50 [2]: 7.12
SMILES: COc1cc2c(cc1C1=CCN(C)CCC1)N=C(N)C21CCC1
inhibition at 30 µM [1]: 1%

pIC50 [3]: 8.10
half-life [4]: > 2.4 h
half-life [5]: 0.1 h
half-life [6]: 10.4 h
SMILES: COc1cc2c(NC3CCN(C)CC3)cc(-c3ccc(C)o3)nc2cc1OCCCN1CCCC1

pIC50 [7]: > 7.82
pKi [8]: 8.05
pKi [9]: 7.82
SMILES: COc1cc2c(NC3CCN(C)CC3)nc(N3CCCN(C)CC3)nc2cc1OCCOCCN(C)C

pIC50 [7]: < 4.30
SMILES: CN1C(=O)C2C[C@]3([C@]45CC6C(=O)N(C)[C@@H](CO)C(=O)N6[C@H]4Nc4ccccc45)c4ccccc4N[C@@H]3N2C(=O)[C@@H]1CO (some centres not stated)

pIC50 [2]: 7.49
SMILES: CNc1cc(C)nc(Nc2ccc(OC)c(C3=CCNCCC3)c2)n1

pIC50 [3]: > 8.60
SMILES: COc1cc2c(NC3CCN(C(C)C)CC3)nc(N3CCOCC3)nc2cc1OCCCN1CCCC1

pIC50 [7]: < 4.30
SMILES: CN1C(=O)C2C[C@]3([C@]45CC6C(=O)N(C)[C@H](CO)C(=O)N6[C@H]4Nc4ccccc45)c4ccccc4N[C@@H]3N2C(=O)[C@H]1CO (some centres not stated)

SMILES: COc1cc2c(N(C)C3CCN(C(C)C)CC3)nc(C3CCCCC3)nc2cc1OCCCN1CCCC1
pIC50 [7]: 8.30
pIC50 [3]: < 8.00

pIC50 [3]: 9.15
SMILES: COc1cc2c(NC3CCN(C(C)C)CC3)cc(C3CCCCC3)nc2cc1OCCCN1CCCC1

pIC50 [7]: 7.82
SMILES: CCN(c1cc(-c2ccc(CN3CCOCC3)cc2)cc(C(=O)NCc2c(C)cc(C)[nH]c2=O)c1C)C1CCOCC1 [TAZEMETOSTAT]

pIC50 [15]: > 6.00
pIC50 [16]: 5.11
pIC50 [17]: 5.07
pIC50 [18]: 5.11
SMILES: COc1cc2nc(N3CCN(C)CC3)nc(NC3CCN(Cc4ccccc4)CC3)c2cc1OC
pIC50 [10]: 5.47
pIC50 [11]: 5.25
pIC50 [12]: 5.48
pIC50 [13]: 5.43
pIC50 [14]: > 6.00

pIC50 [3]: 7.28
Cmax [19]: 42.4 µM
SMILES: Cc1c(C(=O)N[C@@H](CCC2CC2)C(=O)Nc2ccc(C#N)cc2)[nH]c2c1C(=O)CC(C)(C)C2

SMILES: CN1C(=O)[C@]23C[C@]4([C@]56C[C@]78SS[C@](CO)(C(=O)N7[C@H]5Nc5ccccc56)N(C)C8=O)c5ccccc5N[C@@H]4N2C(=O)[C@@]1(CO)SS3
pIC50 [7]: 5.77

SMILES: COc1cc2c(NC3CCN(C(C)C)CC3)nc(C3CCCCC3)nc2cc1OCCCN1CCCC1
pEC50 [20]: 5.12

pIC50 [21]: 7.47
pIC50 [2]: 7.47
SMILES: COc1cc2c(cc1C1=CCNCCC1)N=C(N)C21CCC1
inhibition at 30 µM [1]: 5%

pIC50 [3]: 7.66
half-life [4]: > 2.4 h
half-life [5]: 0.6 h
half-life [6]: 24.2 h
SMILES: COc1cc2c(NC3CCN(C4CC4)CC3)cc(-c3ccc(C)o3)nc2cc1OCCCN1CCCC1
